For 12 compounds, IC50 and Ki results are on record in patent US7807845B2, “Resistance-repellent retroviral protease inhibitors” (priority 2004, dated 2010).

Each structure is given as a SMILES string.

Experiment [1] concerns HIVmutant9 (10 mutations). The experiment in a line: Antiviral assay in MT-4 cells (MTT), mutant 9 virus. The note with it: Human immunodeficiency virus 1, MT4, 120 h, read-out: IC50 Mutant 9. The class given is cell-based, HIV. As for the experimental part: (§1) MT-4 cells were obtained from the AIDS Research and Reference Reagent Program (ARRRP, Division of AIDS, NIAID, NIH: MT-4 from Dr. D. Richman). Cells were propagated in RPMI 1640 supplemented with 10% fetal bovine serum, 50U of penicillin and 50 μg of streptomycin per ml (Invitrogen, Carlsbad Calif.). The following HIV viruses were used for testing of antiviral potency of compounds: WT=HIVHXB2; recombinant HIVHXB2 virus from drug resistant patient isolates; HIVmutant10 (16 mutations); HIVmutant8 (14 mutations); HIVmutant9 (10 mutations).
(§2) The potency of test compound was determined as previously described (ref 1-3) with minor modifications. MT-4 cells (1.5×10^4/ml) were exposed to 200 50 % tissue culture infective doses (TCID50) of viruses in the presence of various concentrations of test compound in 96 well microtiter plates and incubated at 37° C. for 5 days. 3-(4,5-dimethylthiazol-2-yl)-2,5-diphenytetrazolium bromide (MTT) solution was added to a final concentration of 0.75 mg/ml, and plates were incubated 1 hour. After incubation cells were dissolved in isopropanol/Triton-X 100/HCl (1000:50:25) solution. Absorbance was monitored in a microplate reader (Spectramax, Molecular Devices) at 540 nm and 690 nm. Cytotoxicity of compounds was tested in a similar assay in the absence of virus.

Experiment [2] deals with mutant HIV PR (Mutant 10) (Human immunodeficiency virus type 1 group M subtype B, UniProt P04585). The experiment in a line: HIV PR inhibition assay, Mutant 10. The class given is biochemical. As to conditions: read-out: Ki Mutant 10; recombinant mutant HIV PR, fluorogenic substrate, pH 6.5. As for the experimental part: (§3) Expression and purification of WT and mutant HIV PR. Recombinant wild type and mutant HIV PRs were expressed using pET21 vector (Novagen) in E. coli cells, and purified and refolded as described previously (Gulnik et al, 1995). The cells were resuspended in 50 mM tris-HCl buffer, pH 8.0, 25 mM NaCl, 0.2% β-mercaptoethanol (buffer A), sonicated and centrifuged. Inclusion bodies were washed first with buffer A, then with buffer A containing respectively 0.1% Triton X-100, 1 M NaCl, 1 M urea, and finally with buffer A alone. Purified inclusion bodies were solubilized by addition of buffer A containing 8 M urea at room temperature. The solution was clarified by centrifugation and loaded onto 2.6×9.5 cm Q-Sepharose column. Flow-through fractions were collected and dialyzed against 3 changes of refolding buffer, which consists of 25 mM Na-phosphate, pH 7.0, 25 mM NaCl, 0.2% β-mercaptoethanol and 10% glycerol, aliquoted and stored at −80° C.
(§4) Inhibition constants were determined using the fluorogenic substrate ArgGlu(EDANS)[…]DABCYL)Arg (Amichem, USA). HIV Protease was preincubated for 0.5-1 min at ambient temperature on a 96 well plate with different concentrations of inhibitor in 0.05 M sodium phosphate buffer, pH 6.5, containing 20 mM NaCl, 2 mM DTT and 0.01% Tween-20. The reaction was initiated by the addition of substrate. Final enzyme concentration was 2-5 nM for WT and 2-30 nM for mutants. Substrate concentration was 20 uM and DMSO concentration 2%. The increase in fluorescence intensity at the emission maximum of 520 nm (excitation wavelength 340 nm, cut-off filter 495 nm) was monitored as a function of time using a Spectramax Gemini fluorescence plate reader (Molecular Devices, CA USA). The initial rate of hydrolysis was calculated by first-degree polynomial fit using SoftMAX operating software. Data were fitted to the Michaelis-Menten equation for competitive inhibitors. For tight-binding inhibitors the data were fitted by nonlinear regression analysis to the equation V=V0/2Et({[Ki(1+S/Km)+It−Et]^2+4Ki(1+S/Km)Et}^1/2−[Ki(1+S/Km)+It−Et]) (Williams and Morrison, 1979) with the program GraFit, version 5 (Erithacus Software Limited, UK), where V and V0 are initial velocities with and without inhibitor, Km is the Michaelis-Menten constant and S, Et and It are the concentrations of substrate, active enzyme and inhibitor respectively.

In a further experiment the target is mutant HIV PR (Mutant 9) (Human immunodeficiency virus type 1 group M subtype B, UniProt P04585). The experiment in a line: HIV PR inhibition assay, Mutant 9. In kind it is biochemical. As to conditions: read-out: Ki Mutant 9; recombinant mutant HIV PR, fluorogenic substrate, pH 6.5. As for the experimental part: as §3, §4
The subject of experiment [3] is HIVmutant10 (16 mutations). The experiment in a line: Antiviral assay in MT-4 cells (MTT), mutant 10 virus. The class given is cell-based, HIV. As to conditions: Human immunodeficiency virus 1, MT4, 120 h, read-out: IC50 Mutant 10. As for the experimental part: as §1, §2
For experiment [4], the system named is HIVmutant8 (14 mutations). The experiment in a line: Antiviral assay in MT-4 cells (MTT), mutant 8 virus. The note with it: Human immunodeficiency virus 1, MT4, 120 h, read-out: IC50 Mutant 8. The class given is cell-based, HIV. As for the experimental part:
as §1, §2

A further experiment has as its target mutant HIV PR (Mutant 8) (Human immunodeficiency virus type 1 group M subtype B, UniProt P04585). The experiment in a line: HIV PR inhibition assay, Mutant 8. The class given is biochemical. The note with it: read-out: Ki Mutant 8; recombinant mutant HIV PR, fluorogenic substrate, pH 6.5. As for the experimental part:
as §3, §4

The target in a further experiment is T1, wild type HIV PR (Human immunodeficiency virus type 1 group M subtype B, UniProt P04585).
T1 construct: Recombinant wild type and mutant HIV PRs were expressed using pET21 vector (Novagen) in E. coli cells; made in house
The experiment in a line: HIV PR inhibition assay, wild type. The class given is biochemical. As for the experimental part:
as §3, §4

Another experiment has as its system WT=HIVHXB2. The experiment in a line: Antiviral assay in MT-4 cells (MTT), WT virus. The note with it: Human immunodeficiency virus 1, MT4, 120 h, HIVHXB2, 5 days. The class given is cell-based, HIV. As for the experimental part: as §1, §2

For `CC(C)CNC=C1C(=O)Nc2ccc(S(=O)(=O)N(CC(C)C)CC(O)C(Cc3ccccc3)NC(=O)OC3COC4OCCC34)cc21` (stereo not drawn) [Compound 60, (1-Benzyl-2-hydroxy-3-{isobutyl-[3-(isobutylamino-methylene)-2-oxo-2,3-dihydro-1H-indole-5-sulfonyl]-amino}-propyl)-carbamic acid hexahydro-furo[2,3-b]furan-3-yl ester], the IC50 in experiment [1] stood at 9.5 nM; in experiment [3], 33 nM; in experiment [4], 16 nM; in the experiment on WT=HIVHXB2, 7.5 nM. Besides, the Ki in experiment [2] was below 1 nM; at mutant HIV PR (Mutant 9), 0.15 nM; on mutant HIV PR (Mutant 8), below 0.3 nM; on wild type HIV PR it was below 0.1 nM.

With `CC(C)CN(CC(O)C(Cc1ccccc1)NC(=O)OC1COC2OCCC12)S(=O)(=O)c1ccc2c(c1)C(=CNCC1CCCCC1)C(=O)N2` (stereo not drawn) [Compound 72, [1-Benzyl-3-({3-[(cyclohexylmethyl-amino)-methylene]-2-oxo-2,3-dihydro-1H-indole-5-sulfonyl}-isobutyl-amino)-2-hydroxy-propyl]-carbamic acid hexahydro-furo[2,3-b]furan-3-yl ester], the IC50 was 9 nM in experiment [1], 40 nM in experiment [3], 27 nM in experiment [4] and 9.7 nM with WT=HIVHXB2. Moreover, the Ki is below 1 nM in experiment [2], below 0.1 nM at mutant HIV PR (Mutant 9), below 0.3 nM at mutant HIV PR (Mutant 8) and below 0.1 nM on wild type HIV PR.

Consider `CC(C)CN(CC(O)C(Cc1ccccc1)NC(=O)OC1COC2OCCC12)S(=O)(=O)c1ccc2c(c1)C(=CNCCc1ccccn1)C(=O)N2` (stereo not drawn) [Compound 76, [1-Benzyl-2-hydroxy-3-(isobutyl-{2-oxo-3-[(2-pyridin-2-yl-ethylamino)-methylene]-2,3-dihydro-1H-indole-5-sulfonyl}-amino)-propyl]-carbamic acid hexahydro-furo[2,3-b]furan-3-yl ester], for which the IC50 turned out to be 35 nM in experiment [1], 28 nM in experiment [3], 61 nM in experiment [4] and 33 nM in the experiment with WT=HIVHXB2. The Ki is below 1 nM in experiment [2], below 0.1 nM on mutant HIV PR (Mutant 9), below 0.3 nM at mutant HIV PR (Mutant 8) and below 0.1 nM at wild type HIV PR.

Regarding `CC(C)CN(CC(O)C(Cc1ccccc1)NC(=O)OC1COC2OCCC12)S(=O)(=O)c1ccc2c(c1)C(=CNCCCCc1ccccc1)C(=O)N2` (stereo not drawn) [Compound 78, [1-Benzyl-2-hydroxy-3-(isobutyl-{2-oxo-3-[(4-phenyl-butylamino)-methylene]-2,3-dihydro-1H-indole-5-sulfonyl}-amino)-propyl]-carbamic acid hexahydro-furo[2,3-b]furan-3-yl ester], the IC50 in experiment [1] is 17 nM; in experiment [3], 105 nM; in experiment [4], 55 nM; with WT=HIVHXB2, 11 nM. In addition, the Ki in experiment [2] was below 1 nM; on mutant HIV PR (Mutant 9), below 0.1 nM; at mutant HIV PR (Mutant 8), below 0.3 nM; on wild type HIV PR, below 0.1 nM.

Take `CC(C)CN(CC(O)C(Cc1ccccc1)NC(=O)OC1COC2OCCC12)S(=O)(=O)c1ccc2c(c1)C(=CNCC1CC1)C(=O)N2` (stereo not drawn) [Compound 101]: the IC50 in experiment [1] came to 22 nM; in experiment [3], 55 nM; in experiment [4], 31 nM; with WT=HIVHXB2, 20 nM. In addition, the Ki was below 1 nM in experiment [2], 0.19 nM at mutant HIV PR (Mutant 9), below 0.3 nM on mutant HIV PR (Mutant 8) and 0.11 nM on wild type HIV PR.

`CC(C)CC(C)NC=C1C(=O)Nc2ccc(S(=O)(=O)N(CC(C)C)CC(O)C(Cc3ccccc3)NC(=O)OC3COC4OCCC34)cc21` (stereo not drawn) [Compound 104]: the IC50 stood at 16 nM in experiment [1], 74 nM in experiment [3], 33 nM in experiment [4] and 7 nM with WT=HIVHXB2. Further, the Ki in experiment [2] is 1.3 nM; on mutant HIV PR (Mutant 9), 0.25 nM; on mutant HIV PR (Mutant 8), below 0.3 nM; on wild type HIV PR, 0.17 nM.

On to `CCCN(C=C1C(=O)Nc2ccc(S(=O)(=O)N(CC(C)C)CC(O)C(Cc3ccccc3)NC(=O)OC3COC4OCCC34)cc21)CC` (stereo not drawn) [Compound 106], for which the IC50 turned out to be 20 nM in experiment [1], 60 nM in experiment [3], 30 nM in experiment [4] and 21 nM with WT=HIVHXB2. The Ki in experiment [2] is below 1 nM; at mutant HIV PR (Mutant 9), below 0.1 nM; at mutant HIV PR (Mutant 8), below 0.3 nM; at wild type HIV PR, below 0.1 nM.

On to `CC(C)CN(CC(O)C(Cc1ccccc1)NC(=O)OC1COC2OCCC12)S(=O)(=O)c1ccc2c(c1)C(=CNC1CCCCC1)C(=O)N2` (stereo not drawn) [Compound 107], for which the IC50 was 28 nM in experiment [1], 110 nM in experiment [3], 39 nM in experiment [4] and 13 nM in the experiment with WT=HIVHXB2. The Ki in experiment [2] was 1.2 nM; at mutant HIV PR (Mutant 9), 0.21 nM; at mutant HIV PR (Mutant 8) it was below 0.3 nM; at wild type HIV PR it was below 0.1 nM.

As for `CCCC(C)NC=C1C(=O)Nc2ccc(S(=O)(=O)N(CC(C)C)CC(O)C(Cc3ccccc3)NC(=O)OC3COC4OCCC34)cc21` (stereo not drawn) [Compound 108], the IC50 in experiment [1] was 15 nM; in experiment [3], 80 nM; in experiment [4] it was 35 nM; with WT=HIVHXB2, 9 nM. Further, the Ki in experiment [2] was below 1 nM; on mutant HIV PR (Mutant 9), below 0.1 nM; on mutant HIV PR (Mutant 8) it was below 0.3 nM; at wild type HIV PR, below 0.1 nM.

`CCc1cccc(NC=C2C(=O)Nc3ccc(S(=O)(=O)N(CC(C)C)CC(O)C(Cc4ccccc4)NC(=O)OC4COC5OCCC45)cc32)n1` (stereo not drawn) [Compound 112]: the IC50 was 30 nM in experiment [1], 200 nM in experiment [3], 50 nM in experiment [4] and 7 nM in the experiment with WT=HIVHXB2. Moreover, the Ki in experiment [2] is 6.4 nM; at mutant HIV PR (Mutant 9), 0.17 nM; on mutant HIV PR (Mutant 8) it was below 0.3 nM; at wild type HIV PR, below 0.1 nM.

As to `CC(C)CN(C=C1C(=O)Nc2ccc(S(=O)(=O)N(CC(C)C)CC(O)C(Cc3ccccc3)NC(=O)OC3COC4OCCC34)cc21)CC(C)C` (stereo not drawn) [Compound 113], the IC50 in experiment [1] was determined as 23 nM; in experiment [3], 90 nM; in experiment [4], 34 nM; in the experiment on WT=HIVHXB2 it was 8 nM. Besides, the Ki was 2.9 nM in experiment [2], 0.21 nM at mutant HIV PR (Mutant 9), below 0.3 nM at mutant HIV PR (Mutant 8) and below 0.1 nM at wild type HIV PR.

`CC(C)CN(CC(O)C(Cc1ccccc1)NC(=O)OC1COC2OCCC12)S(=O)(=O)c1ccc2c(c1)C(=CNC1CCC1)C(=O)N2` (stereo not drawn) [Compound 114]: the IC50 in experiment [1] was 31 nM; in experiment [3], 115 nM; in experiment [4], 30 nM; with WT=HIVHXB2 it was 17 nM. Besides, the Ki in experiment [2] is 1.2 nM; on mutant HIV PR (Mutant 9), 0.15 nM; at mutant HIV PR (Mutant 8), below 0.3 nM; on wild type HIV PR, below 0.1 nM.

One may read the IC50 as the concentration that gives 50% inhibition. What is called Ki is the equilibrium dissociation constant of an inhibitor or competing ligand from its target.
